Assay results published in PubChem BioAssay (NCI).
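Tested at 5 concentrations; 48 h exposure; 96-well plates; endpoints linearly interpolated, else capped at highest concentration. The concentration for full growth arrest is given as TGI.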

Tests used:
Test in all cases: NCI-60 cell line screen, 48 h
786-0 renal = tested on: 786-0 renal
PC-3 prostate = tested on: PC-3 prostate
HT29 colon = tested on: HT29 colon
OVCAR-8 ovarian = tested on: OVCAR-8 ovarian
U251 CNS = tested on: U251 CNS
CCRF-CEM leukemia = tested on: CCRF-CEM leukemia
OVCAR-3 ovarian = tested on: OVCAR-3 ovarian
UO-31 renal = tested on: UO-31 renal
DU-145 prostate = tested on: DU-145 prostate
NCI-H522 lung = tested on: NCI-H522 lung
K-562 leukemia = tested on: K-562 leukemia
SNB-75 CNS = tested on: SNB-75 CNS
LOX IMVI melanoma = tested on: LOX IMVI melanoma
MDA-MB-231 breast = tested on: MDA-MB-231 breast
HOP-62 NSCLC = tested on: HOP-62 NSCLC
COLO 205 colon = tested on: COLO 205 colon
NCI-H23 lung = tested on: NCI-H23 lung
OVCAR-4 ovarian = tested on: OVCAR-4 ovarian
MDA-MB-435 = tested on: MDA-MB-435
SF-539 CNS = tested on: SF-539 CNS
SR leukemia = tested on: SR leukemia
SK-MEL-2 melanoma = tested on: SK-MEL-2 melanoma
HS 578T breast = tested on: HS 578T breast
KM12 colon = tested on: KM12 colon
RXF 393 renal = tested on: RXF 393 renal
MCF7 breast = tested on: MCF7 breast
SF-295 CNS = tested on: SF-295 CNS
SF-268 CNS = tested on: SF-268 CNS
TK-10 renal = tested on: TK-10 renal
HL-60(TB) leukemia = tested on: HL-60(TB) leukemia
M14 melanoma = tested on: M14 melanoma
ACHN renal = tested on: ACHN renal
CAKI-1 renal = tested on: CAKI-1 renal
SK-OV-3 ovarian = tested on: SK-OV-3 ovarian
SK-MEL-5 melanoma = tested on: SK-MEL-5 melanoma
NCI/ADR-RES ovarian = tested on: NCI/ADR-RES ovarian
NCI-H460 lung = tested on: NCI-H460 lung
A498 renal = tested on: A498 renal
HCT-15 colon = tested on: HCT-15 colon
NCI-H226 lung = tested on: NCI-H226 lung
OVCAR-5 ovarian = tested on: OVCAR-5 ovarian
T-47D breast = tested on: T-47D breast
A549 NSCLC = tested on: A549 NSCLC
MDA-N = tested on: MDA-N
BT-549 breast = tested on: BT-549 breast
RPMI-8226 leukemia = tested on: RPMI-8226 leukemia
SW-620 colon = tested on: SW-620 colon
SK-MEL-28 melanoma = tested on: SK-MEL-28 melanoma
UACC-257 melanoma = tested on: UACC-257 melanoma
MOLT-4 leukemia = tested on: MOLT-4 leukemia
SN12C renal = tested on: SN12C renal
EKVX NSCLC = tested on: EKVX NSCLC
HCT-116 colon = tested on: HCT-116 colon
UACC-62 melanoma = tested on: UACC-62 melanoma
HOP-92 NSCLC = tested on: HOP-92 NSCLC
HCC-2998 colon = tested on: HCC-2998 colon

Measured: TGI

O=P1(N(CCCl)CCCl)Oc2ccc(Cl)cc2Sc2c(ccc(Cl)c2Cl)O1 (stereo unspecified)
33.6 µM: HS 578T breast
77.1 µM: A549 NSCLC
80.3 µM: SK-MEL-2 melanoma
67.3 µM: SNB-75 CNS
33.7 µM: NCI-H460 lung
21.5 µM: SK-MEL-5 melanoma
95 µM: NCI-H226 lung
34.4 µM: HOP-92 NSCLC
43.9 µM: RXF 393 renal
23 µM: COLO 205 colon
74.6 µM: HCT-116 colon
> 100 µM: all other assays above
